# Test results as given in patent US20250144067A1, “PERSONALIZED STARVATION THERAPY FOR CANCER” (Faeth Therapeutics, Inc., priority 2021, published 2025).
# Where a name gives a salt, the structure may show the parent alone.
# Key:
# [1] = system: NCI-H292 lung cancer cells; test: FDA drug screening, complete media vs cholesterol-free media with simvastatin (TABLE 2); assay type: cell-based, human; conditions: for Cholesterol-free media + simvastatin (0.04 μM) / Complete Media: NCI-H292 cells
# [2] = system: NCI-H292 lung cancer cells; test: FDA drug screening, complete media vs cholesterol-free media without statin (TABLE 1); assay type: cell-based, human
# [3] = drug in cholesterol-free media with simvastatin 0.04 μM
# [4] = complete media vs cholesterol-free media + simvastatin (0.04 μM), >0 enhanced anti-cancer activity, about 0 neutral, <0 antagonist
# [5] = NCI-H292 cells, cholesterol-free media without statin, FDA drug library screen
# [6] = NCI-H292 cells, complete media, FDA drug library screen
# [7] = complete vs cholesterol-free media, >0 enhanced anti-cancer activity, about 0 neutral, <0 antagonist
# [8] = FDA library drug in cholesterol-free media with simvastatin 0.04 μM
# [9] = FDA library drug in complete media
# [10] = Complete minus Cholesterol-free, greater than 0 enhanced anti-cancer activity, about 0 neutral, below 0 antagonist
# [11] = NCI-H292 cells, FDA drug library screen, cholesterol-free media without statin
# [12] = NCI-H292 cells, FDA drug library screen, complete media
# [13] = FDA drug library screen, cholesterol-free media with simvastatin 0.04 μM
# [14] = FDA drug library screen, complete media
# [15] = complete media minus cholesterol-free media + simvastatin, >0 enhanced anti-cancer activity, about 0 neutral, <0 antagonist
# [16] = Complete minus Cholesterol-free, >0 enhanced anti-cancer activity, about 0 neutral, <0 antagonist
# [17] = NCI-H292 cells, cholesterol-free media without statin
# [18] = complete vs cholesterol-free media, greater than 0 enhanced anti-cancer activity, about 0 neutral, below 0 antagonists
# [19] = cholesterol-free media with simvastatin 0.04 μM, FDA drug library screen (TABLE 2)
# [20] = complete media, FDA drug library screen (TABLE 2)
# [21] = complete media minus cholesterol-free media + simvastatin (0.04 μM), >0 enhanced anti-cancer activity, about 0 neutral, <0 antagonist
# [22] = Complete minus Cholesterol-free, greater than 0 enhanced anti-cancer activity, about 0 neutral, below 0 antagonists
# [23] = NCI-H292 cells in cholesterol-free media without statin
# [24] = NCI-H292 cells in complete media
# [25] = complete media vs cholesterol-free media + simvastatin (0.04 μM), […]
# [26] = Complete minus Cholesterol-free, […]
compound,measurement,setting,value
C[C@H]1CNCCCN1S(=O)(=O)c1cccc2cncc(F)c12 [Ripasudil],Cholesterol-free media + simvastatin (0.04 μM),[1]; [3],1.388
same,Complete Media,[1]; drug in complete media,1.177
same,Difference,[1]; [4],−0.21
same,Cholesterol-free,[2]; [5],0.6571
same,Complete,[2]; [6],0.9065
same,Difference,[2]; [7],0.25
CO[C@H]1O[C@H](COS(=O)(=O)O)[C@@H](O[C@@H]2O[C@@H](C(=O)O)[C@@H](O[C@H]3O[C@H](COS(=O)(=O)O)[C@@H](O[C@@H]4O[C@H](C(=O)O)[C@@H](O[C@H]5O[C@H](COS(=O)(=O)O)[C@@H](O)[C@H](O)[C@H]5NS(=O)(=O)O)[C@H](O)[C@H]4O)[C@H](OS(=O)(=O)O)[C@H]3NS(=O)(=O)O)[C@H](O)[C@H]2OS(=O)(=O)O)[C@H](O)[C@H]1NS(=O)(=O)O [Fondaparinux (sodium)],Cholesterol-free media + simvastatin (0.04 μM),[1]; [8],1.182
same,Complete Media,[1]; [9],0.8937
same,Difference,[1]; [4],−0.29
same,Difference,[2]; [10],−0.10
same,Cholesterol-free,[2]; [11],1.098
same,Complete,[2]; [12],1
Nc1ccc(S(=O)(=O)Nc2ccccn2)cc1 [Sulfapyridine],Cholesterol-free media + simvastatin (0.04 μM),[1]; [13],1.045
same,Complete Media,[1]; [14],1.844
same,Difference,[1]; [15],0.80
same,Difference,[2]; [16],−0.02
same,Cholesterol-free,[2]; [5],0.8112
same,Complete,[2]; [6],0.7909
CCCCCCO[C@@H](C)c1cccc(-c2csc(NC(=O)c3cc(Cl)c(/C=C(\C)C(=O)O)c(Cl)c3)n2)c1OC [Lusutrombopag],Cholesterol-free media + simvastatin (0.04 μM),[1]; [3],0.9436
same,Complete Media,[1]; drug in complete media,0.7827
same,Difference,[1]; [4],−0.16
same,Difference,[2]; [16],−0.26
same,Cholesterol-free,[2]; [17],1.148
same,Complete,"[2]; NCI-H292 cells, complete media",0.8829
NC(=O)c1cnccn1 [Pyrazinamide],Cholesterol-free media + simvastatin (0.04 μM),[1]; [13],0.9396
same,Complete Media,[1]; [14],0.8009
same,Difference,[1]; [4],−0.14
same,Difference,[2]; [16],0.04
same,Cholesterol-free,[2]; [5],0.9745
same,Complete,[2]; [6],1.011
NC(CO)(CO)CO.O=C(c1ccccc1)c1ccc2n1CCC2C(=O)O (stereo not drawn) [Ketorolac (tromethamine salt)],Cholesterol-free media + simvastatin (0.04 μM),[1]; [3],1.289
same,Complete Media,[1]; drug in complete media,1.116
same,Difference,[1]; [4],−0.17
same,Cholesterol-free,[2]; [17],1.112
same,Complete,"[2]; NCI-H292 cells, complete media",0.6871
same,Difference,[2]; [18],−0.42
O=C1O[C@H]([C@@H](O)CO)C(O)=C1O [L-Ascorbic acid (sodium salt)],Cholesterol-free media + simvastatin (0.04 μM),[1]; [19],0.9802
same,Complete Media,[1]; [20],0.9199
same,Difference,[1]; [21],−0.06
same,Difference,[2]; [10],−0.14
same,Cholesterol-free,[2]; [11],0.9664
same,Complete,[2]; [12],0.8232
COc1nc(N)nc2c1ncn2[C@@H]1O[C@H](CO)[C@@H](O)[C@@H]1O [Nelarabine],Cholesterol-free media + simvastatin (0.04 μM),[1]; [19],0.8366
same,Complete Media,[1]; [20],0.8526
same,Difference,[1]; [21],0.02
same,Difference,[2]; [22],−0.59
same,Cholesterol-free,[2]; [23],1.291
same,Complete,[2]; [24],0.7049
Cc1oc(=O)oc1COC(=O)C1=C([C@H]2CCCO2)S[C@@H]2[C@@H]([C@@H](C)O)C(=O)N12 [Faropenem daloxate],Cholesterol-free media + simvastatin (0.04 μM),[1]; [13],1.071
same,Complete Media,[1]; [14],0.9664
same,Difference,[1]; [4],−0.10
same,Difference,[2]; [22],−0.54
same,Cholesterol-free,[2]; [23],1.449
same,Complete,[2]; [24],0.9042
Teprenone,Cholesterol-free media + simvastatin (0.04 μM),[1]; [13],1.117
same,Complete Media,[1]; [14],0.9777
same,Difference,[1]; [25],−0.14
same,Cholesterol-free,[2]; [17],1.353
same,Difference,"[2]; complete vs cholesterol-free media, […]",−0.31
CC(=O)NC(CCC(N)=O)C(=O)O (stereo not drawn) [Aceglutamide],Cholesterol-free media + simvastatin (0.04 μM),[1]; [13],0.762
same,Complete Media,[1]; [14],1.026
same,Difference,[1]; [15],0.26
same,Cholesterol-free,[2]; [17],1.178
same,Complete,"[2]; NCI-H292 cells, complete media",0.7674
same,Difference,[2]; [18],−0.41
C/C(O)=C(\C#N)C(=O)Nc1ccc(C(F)(F)F)cc1 [Teriflunomide],Cholesterol-free media + simvastatin (0.04 μM),[1]; [8],1.712
same,Complete Media,[1]; [9],0.9665
same,Difference,[1]; [4],−0.75
same,Difference,[2]; [10],−0.16
same,Cholesterol-free,[2]; [11],1.092
same,Complete,[2]; [12],0.9318
CC(C)CN(C[C@@H](O)[C@H](Cc1ccccc1)NC(=O)O[C@H]1CCOC1)S(=O)(=O)c1ccc(N)cc1 [Amprenavir],Cholesterol-free media + simvastatin (0.04 μM),[1]; [13],1.669
same,Complete Media,[1]; [14],1.996
same,Difference,[1]; [15],0.33
same,Cholesterol-free,[2]; [5],0.8915
same,Complete,[2]; [6],1.403
same,Difference,[2]; [7],0.51
CCC(=O)O[C@H](CC(=O)O)C[N+](C)(C)C [Levocarnitine propionate (hydrochloride)],Cholesterol-free media + simvastatin (0.04 μM),[1]; [19],1.106
same,Complete Media,[1]; [20],1.114
same,Difference,[1]; [21],0.01
same,Difference,[2]; [16],−0.30
same,Cholesterol-free,[2]; [17],1.256
same,Complete,"[2]; NCI-H292 cells, complete media",0.9514
CC(C)NCC(O)COc1ccc(CC(N)=O)cc1 (stereo not drawn) [Atenolol],Cholesterol-free media + simvastatin (0.04 μM),"[1]; cholesterol-free media with simvastatin 0.04 μM, cell growth value in FDA drug screen",0.9412
same,Complete Media,"[1]; complete media, cell growth value in FDA drug screen",1.006
same,Difference,[1]; [15],0.06
same,Difference,[2]; [16],−0.26
same,Cholesterol-free,[2]; [17],1.429
C[Se]CC[C@H](N)C(=O)O [Selenomethionine],Cholesterol-free media + simvastatin (0.04 μM),[1]; [13],1.83
same,Complete Media,[1]; [14],1.71
same,Difference,[1]; [4],−0.12
same,Difference,[2]; [22],−0.63
same,Cholesterol-free,[2]; [23],1.898
same,Complete,[2]; [24],1.265
N#Cc1cc(NC(=O)C(=O)O)c(Cl)c(NC(=O)C(=O)O)c1.NC(CO)(CO)CO.NC(CO)(CO)CO [Lodoxamide (tromethamine)],Cholesterol-free media + simvastatin (0.04 μM),[1]; [13],0.9835
same,Complete Media,[1]; [14],1.282
same,Difference,[1]; [15],0.30
same,Difference,[2]; [10],−0.13
same,Cholesterol-free,[2]; [11],0.8848
same,Complete,[2]; [12],0.7586
Camostat (mesylate),Cholesterol-free media + simvastatin (0.04 μM),[1]; [8],1.328
same,Difference,[1]; [4],−0.30
same,Cholesterol-free,[2]; [5],0.6104
same,Complete,[2]; [6],0.9828
same,Difference,[2]; [7],0.37
CCc1nc(N)nc(N)c1-c1ccc(Cl)cc1 [Pyrimethamine],Cholesterol-free media + simvastatin (0.04 μM),[1]; [3],1.205
same,Complete Media,[1]; drug in complete media,1.02
same,Difference,[1]; [4],−0.19
same,Cholesterol-free,[2]; [5],1.197
same,Complete,[2]; [6],1.426
same,Difference,[2]; [7],0.23
CC(=O)[C@@]1(O)CC[C@H]2[C@@H]3CCC4=CC(=O)CC[C@]4(C)[C@H]3CC[C@@]21C [17-Hydroxyprogesterone],Cholesterol-free media + simvastatin (0.04 μM),[1]; [13],0.9953
same,Complete Media,[1]; [14],0.8962
same,Difference,[1]; [25],−0.10
same,Difference,[2]; [26],−0.02
same,Cholesterol-free,[2]; [5],1.202
same,Complete,[2]; [6],1.185
CCC1(C)CC(=O)NC(=O)C1 [Bemegride],Cholesterol-free media + simvastatin (0.04 μM),[1]; [13],0.8627
same,Complete Media,[1]; [14],1.013
same,Difference,"[1]; complete media minus cholesterol-free media + simvastatin, […]",0.15
same,Difference,[2]; [26],−0.76
same,Cholesterol-free,[2]; [23],1.658
same,Complete,[2]; [24],0.894
CC(COc1ccccc1)N(CCCl)Cc1ccccc1 (stereo not drawn) [Phenoxybenzamine (hydrochloride)],Cholesterol-free media + simvastatin (0.04 μM),[1]; [19],0.9012
same,Complete Media,[1]; [20],0.8799
same,Difference,"[1]; complete media minus cholesterol-free media + simvastatin (0.04 μM), […]",−0.02
same,Difference,[2]; [26],−0.20
same,Cholesterol-free,[2]; [17],0.9421
same,Complete,"[2]; NCI-H292 cells, complete media",0.7375
